From patent US10501451B2, “Selective NR2B antagonists” (BRISTOL-MYERS SQUIBB COMPANY, priority 2015, dated 2019)
Where two headings read alike, the source gives them in different places.

Assays:
hERG channels = hERG channels (Homo sapiens (Human), UniProt Q12809); assay: hERG electrophysiology assay (patch clamp); format: cell-based; conditions: HEK 293 cells stably expressing hERG channels, tail current
Procedure: hERG Electrophysiology Assay. The experimental compounds were assessed for hERG activity on HEK 293 cells stably expressing hERG channels using patch clamp technique. Coverslips plated with hERG expressing cells were placed in the experimental chamber and were perfused with a solution composed of (in mM): 140 NaCl, 4 KCl, 1.8 CaCl2, 1 MgCl2, 10 Glucose, 10 HEPES (pH 7.4, NaOH) at room temperature. Borosilicate patch pipettes had tip resistances of 2-4 Mohms when filled with an internal solution containing: 130 KCl, 1 MgCl2, 1 CaCl2, 10 EGTA, 10 HEPES, 5 ATP-K2 (pH 7.2, KOH). The cells were clamped at −80 mV in whole cell configuration using an Axopatch 200B (Axon instruments, Union City, Calif.) patch clamp amplifier controlled by pClamp (Axon instruments) software. […] First, tail currents were recorded in presence of extracellular solution alone (control) and subsequently, in extracellular solution containing increasing compound concentrations. […] The percentage inhibition at each concentration was calculated as reduction in peak tail current with respect to the peak tail current recorded in the presence of control solution. […]

[1] = molecular target: NR2B-subtype NMDA receptors (Rattus norvegicus (Rat), UniProt P35439+Q00960); assay: Radioligand binding assay (3H Ro 25-6981 competition, rat forebrain membranes); conditions: 3H Ro 25-6981 (4 nM)
NR2B-subtype NMDA receptors, sequence (Q00960 27-1482, other chains not shown): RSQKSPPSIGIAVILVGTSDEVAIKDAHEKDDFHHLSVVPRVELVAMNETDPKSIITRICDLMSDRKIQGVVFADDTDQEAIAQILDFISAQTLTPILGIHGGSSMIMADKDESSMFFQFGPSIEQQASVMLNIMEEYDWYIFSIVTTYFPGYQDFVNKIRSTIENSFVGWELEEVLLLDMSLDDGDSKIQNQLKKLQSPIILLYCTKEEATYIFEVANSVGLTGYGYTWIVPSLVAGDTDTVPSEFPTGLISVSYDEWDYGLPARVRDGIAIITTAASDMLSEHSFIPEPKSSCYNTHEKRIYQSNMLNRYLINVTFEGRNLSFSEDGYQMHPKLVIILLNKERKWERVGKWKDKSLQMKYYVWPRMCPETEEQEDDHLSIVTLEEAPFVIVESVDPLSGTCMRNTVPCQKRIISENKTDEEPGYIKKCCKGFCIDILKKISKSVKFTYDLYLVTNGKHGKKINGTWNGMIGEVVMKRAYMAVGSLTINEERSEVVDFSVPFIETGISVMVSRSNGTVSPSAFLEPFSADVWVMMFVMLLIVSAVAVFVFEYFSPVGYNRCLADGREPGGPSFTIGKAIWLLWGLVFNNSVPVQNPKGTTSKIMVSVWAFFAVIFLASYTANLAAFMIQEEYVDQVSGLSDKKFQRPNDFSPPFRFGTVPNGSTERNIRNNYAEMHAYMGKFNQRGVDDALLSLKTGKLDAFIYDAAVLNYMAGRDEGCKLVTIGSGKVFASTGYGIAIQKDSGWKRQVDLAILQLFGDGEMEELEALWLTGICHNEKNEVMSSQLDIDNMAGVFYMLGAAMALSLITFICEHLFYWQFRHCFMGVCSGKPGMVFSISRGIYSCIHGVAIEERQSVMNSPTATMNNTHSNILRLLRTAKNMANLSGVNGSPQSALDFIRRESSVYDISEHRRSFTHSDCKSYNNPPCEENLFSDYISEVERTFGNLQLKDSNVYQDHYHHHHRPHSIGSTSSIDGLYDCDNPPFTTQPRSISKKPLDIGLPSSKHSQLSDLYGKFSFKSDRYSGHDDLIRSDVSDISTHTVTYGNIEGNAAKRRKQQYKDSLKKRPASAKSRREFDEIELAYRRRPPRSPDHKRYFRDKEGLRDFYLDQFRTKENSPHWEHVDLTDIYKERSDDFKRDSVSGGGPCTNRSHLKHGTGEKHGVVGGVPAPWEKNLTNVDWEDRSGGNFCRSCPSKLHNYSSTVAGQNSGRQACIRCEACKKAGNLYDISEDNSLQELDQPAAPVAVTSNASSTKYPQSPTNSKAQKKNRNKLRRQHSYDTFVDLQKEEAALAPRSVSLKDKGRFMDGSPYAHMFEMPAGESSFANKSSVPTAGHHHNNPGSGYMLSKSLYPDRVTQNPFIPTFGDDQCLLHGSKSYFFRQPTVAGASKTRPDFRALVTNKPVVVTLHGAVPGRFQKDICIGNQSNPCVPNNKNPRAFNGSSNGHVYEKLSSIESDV
Procedure: Radioligand Binding Assay. Binding experiments to determine binding to NR2B-subtype NMDA receptors were performed on forebrains of 8-10 weeks old male Sprague Dawley rats (Harlan, Netherlands) using ^3H Ro 25-6981 (Mutel V; Buchy D; Klingelschmidt A; Messer J; Bleuel Z; Kemp J A; Richards J G. Journal of Neurochemistry, 1998, 70(5):2147-2155. Rats were decapitated without anesthesia using a Guillotine (approved by animal ethics committee) and the harvested brains were snap-frozen and stored at −80° C. for 3-6 months for membrane preparation.
For membrane preparation, rat forebrains were thawed on ice for 20 minutes in homogenization buffer composed of 50 mM KH2PO4 (pH adjusted to 7.4 with KOH), 1 mM EDTA, 0.005% Triton X 100 and protease inhibitor cocktail (Sigma Aldrich). Thawed brains were homogenized using a Dounce homogenizer and centrifuged at 48000×g for 20 min. The pellet was resuspended in cold buffer and homogenized again using a Dounce homogenizer. Subsequently, the homogenate was aliquoted, snap-frozen and stored at −80° C. for not more than 3-4 months.
To perform the competition binding assay, thawed membrane homogenate was added to each well of a 96-well plate (20 μg/well). The experimental compounds were serially diluted in 100% DMSO and added to each row of the assay plate to achieve desired compound concentrations, keeping the DMSO concentration in the assay plate at 1.33% of the final reaction volume. Next, ^3H Ro 25-6981 (4 nM) was added to the assay plate. After incubation for 1 hr at room temperature, the membrane bound radioligand was harvested on to GF/B filter plates (treated with 0.5% PEI for 1 hr at room temperature). The filter plates were dried at 50° C. for 20 mins, incubated with microscint 20 for 10 minutes and finally, the counts were read on TopCount (Perkin Elmer).

hERG channels, sequence (Q12809 whole entry, the tested form may be a part): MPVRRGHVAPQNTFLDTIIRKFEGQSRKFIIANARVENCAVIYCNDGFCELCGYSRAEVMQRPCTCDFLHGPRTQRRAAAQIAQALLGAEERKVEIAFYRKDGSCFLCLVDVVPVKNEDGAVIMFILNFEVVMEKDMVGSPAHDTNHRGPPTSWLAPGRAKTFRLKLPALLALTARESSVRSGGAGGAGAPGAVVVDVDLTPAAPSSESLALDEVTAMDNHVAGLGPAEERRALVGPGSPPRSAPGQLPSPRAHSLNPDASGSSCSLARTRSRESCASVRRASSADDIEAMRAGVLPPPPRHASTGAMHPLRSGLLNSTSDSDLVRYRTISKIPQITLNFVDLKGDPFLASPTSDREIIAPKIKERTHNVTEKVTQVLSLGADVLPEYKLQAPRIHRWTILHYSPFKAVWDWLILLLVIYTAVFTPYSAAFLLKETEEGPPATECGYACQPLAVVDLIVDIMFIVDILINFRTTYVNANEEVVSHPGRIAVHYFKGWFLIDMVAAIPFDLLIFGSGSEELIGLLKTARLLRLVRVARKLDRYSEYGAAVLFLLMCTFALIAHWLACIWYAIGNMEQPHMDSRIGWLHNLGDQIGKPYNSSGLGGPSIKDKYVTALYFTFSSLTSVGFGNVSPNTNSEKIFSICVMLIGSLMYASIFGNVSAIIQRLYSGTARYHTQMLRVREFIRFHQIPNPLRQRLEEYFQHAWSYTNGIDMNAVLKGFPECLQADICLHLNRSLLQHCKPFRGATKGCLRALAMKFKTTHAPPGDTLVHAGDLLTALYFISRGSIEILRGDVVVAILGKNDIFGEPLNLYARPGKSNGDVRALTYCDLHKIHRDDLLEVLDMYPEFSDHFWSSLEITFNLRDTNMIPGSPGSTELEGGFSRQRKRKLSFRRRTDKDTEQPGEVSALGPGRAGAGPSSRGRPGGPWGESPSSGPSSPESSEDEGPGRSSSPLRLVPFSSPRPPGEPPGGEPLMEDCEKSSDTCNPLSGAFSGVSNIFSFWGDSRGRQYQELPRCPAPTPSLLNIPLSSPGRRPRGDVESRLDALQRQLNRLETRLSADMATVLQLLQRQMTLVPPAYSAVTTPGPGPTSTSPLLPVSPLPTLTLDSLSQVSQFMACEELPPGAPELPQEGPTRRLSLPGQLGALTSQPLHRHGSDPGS

- Ki ([1]; listed as 10, P-1, read-out: NR2B Binding Ki): 3.2 nM
- Ki ([1]; read-out: binding Ki): 3.2 nM
Structure (SMILES): Cc1ccc(CN2OCC(N3CCN(c4ccc(O)cn4)CC3)C2=O)cc1 (single isomer, unassigned) [Example 10, P-1, 4-(4-(5-hydroxypyridin-2-yl)piperazin-1-yl)-2-(4-methylbenzyl)isoxazolidin-3-one]
- IC50 (hERG channels): 30 µM
